From patent US7968556B2, “Heteroaryl compounds, compositions thereof, and methods of treatment therewith” (Signal Pharmaceuticals, LLC, priority 2006, dated 2011)

Biological target: T1, Tyk2 (Homo sapiens, UniProt P29597)
T1 construct: 450 ng/ml TYK2 KD (Cama Biosciences 08-147 Lot 06CBS-3022D); purchased Cama Biosciences (so in the source)
T1 sequence (P29597 897-1176 limits assumed): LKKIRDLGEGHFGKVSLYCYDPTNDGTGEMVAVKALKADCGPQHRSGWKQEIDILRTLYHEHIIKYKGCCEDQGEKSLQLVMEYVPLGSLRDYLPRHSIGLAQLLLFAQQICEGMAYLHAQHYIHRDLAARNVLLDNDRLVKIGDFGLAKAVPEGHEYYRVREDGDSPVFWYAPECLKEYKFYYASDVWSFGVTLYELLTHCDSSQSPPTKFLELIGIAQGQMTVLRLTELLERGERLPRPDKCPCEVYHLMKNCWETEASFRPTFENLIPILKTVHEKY
Experiment: Tyk2 HTRF Assay
Type: biochemical
Protocol: The following is an example of an assay that can be used to determine the Tyk2 inhibitory activity of a test compound.
25 μl/well DMSO is added to Columns 2 and 14 (except 28.5 μl is added to well P14 of Greiner 384-well polypropylene plate). 20 μl/well DMSO is added to all remaining wells.
5 mM compound solutions are added by addition of 5 μl of 30 mM compound to 25 μl DMSO in Columns 2 and 14 of plate. 1.5 mM reference control is prepared by addition of 1.5 μl of 30 mM JAK3 Inhibitor VI to 28.5 μl DMSO in Well P14.
Serial dilution is then performed by the following steps: (i) Compounds in Column 2 are mixed by pipetting 20 μl up and down 6X; (ii) 10 μl/well compounds in DMSO are transferred from one column to the next column for Columns 2-11; (iii) wells are mixed by pipetting 20 μl up and down 6×; (iv) tips are washed 3×25 μl DMSO, 2×25 μl next DMSO; (v) steps i-iv repeated for Columns 14-23.
The following buffers are prepared:
Assay Buffer: 50 mM HEPES pH 7.6; 1 mM DTT; 10 mM MgCl2; 0.01% Triton X100; 0.01% BSA; and 0.1 mM EDTA.
Kinase in Assay Buffer: 450 ng/ml TYK2 KD (Cama Biosciences 08-147 Lot 06CBS-3022D).
Substrate/Detection Mixture (1×ATP) in Assay Buffer: 188 nM DyLight 647-Streptavidin (Pierce 21824); 5 μM Biotin-EQEDEPEGDYFEWLE (Lyn Substrate Peptide); 750 ng/ml Eu-anti-phospho-Tyrosine (PerkinElmer AD0069); 62.5 μM ATP; 80 nM Substrate Peptide (American Peptide Company 332722).
Substrate/Detection Mixture (20×ATP) in Assay Buffer: 188 nM DyLight 647-Streptavidin; 5 μM Biotin-EQEDEPEGDYFEWLE; 750 ng/ml Eu-anti-phospho-Tyrosine; 1250 μM ATP; 80 nM Substrate Peptide.
14.5 μl/well Enzyme Mix or Dilution Buffer (Background Controls) is added to Costar 384 well black plates.
Compound addition and mixture is performed by the following steps: (i) 0.5 μl/well DMSO/compounds in DMSO is transferred from Greiner 384-well polypropylene plate to a plate containing 14.5 μl/well Enzyme Mix and Dilution Buffer; (ii) mixed by pipetting 10 μl up and down 4×; (iii) tips are washed 4×10 μl in DMSO, 2×20 μl in other DMSO; (iv) steps i-iii are repeated until all plates are completed.
10 μl/well Substrate/Detection Mixtures is added and incubated at room temperature 2 hours (on shaker for first 2+ minutes).
10 μl/well 50 mM EDTA/0.01% Triton X100 is added and incubated >15 minutes at room temperature (on shaker for first 2+ minutes).
Plates are read at 665 nm and 620 nm emission on Analyst GT protocol HTRF_SP_A (Counts= 665/620×10000).

IC50: 20.1 to 30 µM
Structure (SMILES): NC(=O)c1nc(-c2cccnc2)nc2c1[nH]c(=O)n2[C@H]1CC[C@H](O)CC1 [Compound 50, 9-(trans-4-Hydroxycyclohexyl)-8-oxo-2-(pyridin-3-yl)-8,9-dihydro-7H-purine-6-carboxamide]
